In patent publication US20020137929A1, “1 - (3-heterocyclylphenyl) isothiourea, -isourea, -guanidine and -amidine herbicidal agents” (Intellectual Property Department, BASF Aktiengesellschaft, priority 1998, published 2002):

What was measured:
[1] = system: AMBEL (Ragweed, Common); assay: Postemergence herbicidal evaluation; assay type: in vivo, Ambrosia artemisifolia
In short: (§1)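 Seedlings grown about two weeks were sprayed at 40 psi with compound dispersed in 50/50 acetone/water plus 0.5% TWEEN 20, at about 0.0156 to 0.500 kg/ha. Plants were kept in the greenhouse and scored 4–5 weeks later on a 0–9 visual scale against untreated controls.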

[2] = system: CASOB (Sicklepod); assay: Postemergence herbicidal evaluation; assay type: in vivo, Cassia obtusifolia
In short: as §1

[3] = system: CHEAL (Lambsquarters, Common); assay: Postemergence herbicidal evaluation; assay type: in vivo, Chenopodium album
In short: as §1

[4] = system: GALAP (Galium); assay: Postemergence herbicidal evaluation; assay type: in vivo, Galium aparine
In short: as §1

[5] = system: ECHCG (Barnyardgrass); assay: Postemergence herbicidal evaluation; assay type: in vivo, Echinochloa crus-galli
In short: as §1

[6] = system: SETVI (Foxtail, Green); assay: Postemergence herbicidal evaluation; assay type: in vivo, Setaria viridis
In short: as §1

[7] = system: GLXMAW (Soybean, Williams); assay: Postemergence herbicidal evaluation; assay type: in vivo, Glycine max, (L.) Merr. cv Williams
In short: as §1

[8] = system: ORYSAT (Rice, Tebonnet); assay: Postemergence herbicidal evaluation; assay type: in vivo, Oryza sativa, (L.) Tebonnet
In short: as §1

[9] = system: CASOB (Sicklepod); assay: Preemergence herbicidal evaluation; assay type: in vivo, Cassia obtusifolia; conditions: rated 4-5 weeks after treatment
In short: (§2)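 Seeds were planted in potting soil in cups, then sprayed preemergence with the test compound in aqueous acetone at about 0.0156 to 0.500 kg per hectare. Cups were kept under greenhouse conditions and visually rated 4–5 weeks after treatment on a 0–9 scale against an untreated control.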

[10] = system: GALAP (Galium); assay: Preemergence herbicidal evaluation; assay type: in vivo, Galium aparine; conditions: rated 4-5 weeks after treatment
In short: as §2

[11] = system: ZEAMX (Corn, Field); assay: Preemergence herbicidal evaluation; assay type: in vivo, Zea mays; conditions: rated 4-5 weeks after treatment
In short: as §2

[12] = system: CYPIR (Rice Flatsedge); assay: Preemergence weed control under flooded paddy conditions; assay type: in vivo, Cyperus iria; conditions: rated 3-4 weeks after treatment
In short: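 Seeds or propagules sown in top 0.5 cm of silt loam soil, flooded 1.5 to 3 cm above surface throughout. Compound in 50/50 v/v aqueous/acetone pipetted into flood water at about 0.0313 to 0.500 kg/ha. Visual 0-9 rating versus control after three to four weeks in greenhouse.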

[13] = system: CYPSE (Flatsedge); assay: as above; assay type: in vivo, Cyperus serotinus; conditions: rated 3-4 weeks after treatment
In short: (§3)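 Flooded-pot preemergence screen with silt loam and seeds in the upper 0.5 cm. Dose about 0.0313 to 0.500 kg/ha, delivered into flood water; visual 0-9 score after 3 to 4 weeks.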

[14] = system: SAGPY (Arrowhead (Pygmaea)); assay: as above; assay type: in vivo, Sagittaria pygmaea; conditions: rated 3-4 weeks after treatment
In short: as §3

[15] = system: CYPSE (Flatsedge); assay: Postemergence weed control under flooded paddy conditions; assay type: in vivo, Cyperus serotinus; conditions: postemergence weeds, rated 3 to 4 weeks after treatment
In short: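 Weeds 3 to 5 cm tall and rice seedlings at the 1.5 to 2.5 leaf stage were flooded, with water held 1.5 to 3 cm above the soil. Compounds in 50/50 v/v aqueous/acetone went into the flood water at about 0.0313 to 0.500 kg/ha. Visual 0-9 ratings versus control were made 3 to 4 weeks later.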

Structure (SMILES): C=CCN1C(=O)C(CC(=O)OC)SC1=Nc1cc(-n2c(=O)cc(C(F)(F)F)n(C)c2=O)c(F)cc1Cl (stereo not drawn) [Compound 64, Methyl 3-allyl-2-{{2-chloro-5-[3,6-dihydro-3-methyl-2,6-dioxo-4-(trifluoromethyl)-1(2H)-pyrimidinyl]-4-fluorophenyl}imino}-4-oxo-5-thiazolidineacetate]
- Postemergence herbicidal rating AMBEL ([1]; Rate 0.0158 kg/ha): 9.0
- Postemergence herbicidal rating AMBEL ([1]; Rate 0.0315 kg/ha): 9.0
- Postemergence herbicidal rating AMBEL ([1]; Rate 0.0630 kg/ha): 9.0
- Postemergence herbicidal rating CASOB ([2]; Rate 0.0158 kg/ha): 2.0
- Postemergence herbicidal rating CASOB ([2]; Rate 0.0315 kg/ha): 2.0
- Postemergence herbicidal rating CASOB ([2]; Rate 0.0630 kg/ha): 3.0
- Postemergence herbicidal rating CHEAL ([3]; Rate 0.0158 kg/ha): 9.0
- Postemergence herbicidal rating CHEAL ([3]; Rate 0.0315 kg/ha): 9.0
- Postemergence herbicidal rating CHEAL ([3]; Rate 0.0630 kg/ha): 9.0
- Postemergence herbicidal rating GALAP ([4]; Rate 0.0158 kg/ha): 5.0
- Postemergence herbicidal rating GALAP ([4]; Rate 0.0315 kg/ha): 7.0
- Postemergence herbicidal rating GALAP ([4]; Rate 0.0630 kg/ha): 7.0
- Postemergence herbicidal rating ECHCG ([5]; Rate 0.0158 kg/ha): 3.0
- Postemergence herbicidal rating ECHCG ([5]; Rate 0.0315 kg/ha): 5.0
- Postemergence herbicidal rating ECHCG ([5]; Rate 0.0630 kg/ha): 7.0
- Postemergence herbicidal rating SETVI ([6]; Rate 0.0158 kg/ha): 6.0
- Postemergence herbicidal rating SETVI ([6]; Rate 0.0315 kg/ha): 7.0
- Postemergence herbicidal rating SETVI ([6]; Rate 0.0630 kg/ha): 9.0
- Postemergence herbicidal rating GLXMAW ([7]; Rate 0.0158 kg/ha): 7.0
- Postemergence herbicidal rating GLXMAW ([7]; Rate 0.0315 kg/ha): 7.5
- Postemergence herbicidal rating GLXMAW ([7]; Rate 0.0630 kg/ha): 7.5
- Postemergence herbicidal rating ORYSAT ([8]; Rate 0.0158 kg/ha): 6.0
- Postemergence herbicidal rating ORYSAT ([8]; Rate 0.0315 kg/ha): 6.0
- Postemergence herbicidal rating ORYSAT ([8]; Rate 0.0630 kg/ha): 6.0
- Preemergence herbicidal rating CASOB ([9]; rate 0.0156 kg/ha): 0.0
- Preemergence herbicidal rating CASOB ([9]; rate 0.0313 kg/ha): 0.0
- Preemergence herbicidal rating CASOB ([9]; rate 0.0625 kg/ha): 1.0
- Preemergence herbicidal rating CASOB ([9]; rate 0.1250 kg/ha): 5.0
- Preemergence herbicidal rating CASOB ([9]; rate 0.2500 kg/ha): 4.0
- Preemergence herbicidal rating GALAP ([10]; rate 0.0156 kg/ha): 0.0
- Preemergence herbicidal rating GALAP ([10]; rate 0.0313 kg/ha): 0.0
- Preemergence herbicidal rating GALAP ([10]; rate 0.0625 kg/ha): 1.0
- Preemergence herbicidal rating GALAP ([10]; rate 0.2500 kg/ha): 7.0
- Preemergence herbicidal rating ZEAMX ([11]; rate 0.0156 kg/ha): 0.0
- Preemergence herbicidal rating ZEAMX ([11]; rate 0.0313 kg/ha): 0.0
- Preemergence herbicidal rating ZEAMX ([11]; rate 0.0625 kg/ha): 1.0
- Preemergence herbicidal rating ZEAMX ([11]; rate 0.1250 kg/ha): 3.0
- Preemergence herbicidal rating ZEAMX ([11]; rate 0.2500 kg/ha): 7.0
- CYPIR herbicidal effect rating ([12]; 0.0313 kg/ha): 0.0
- CYPIR herbicidal effect rating ([12]; 0.0625 kg/ha): 2.0
- CYPIR herbicidal effect rating ([12]; 0.1250 kg/ha): 2.0
- CYPIR herbicidal effect rating ([12]; 0.2500 kg/ha): 7.0
- CYPSE herbicidal effect rating ([13]; 0.0313 kg/ha): 0.0
- CYPSE herbicidal effect rating ([13]; 0.0625 kg/ha): 0.0
- CYPSE herbicidal effect rating ([13]; 0.1250 kg/ha): 0.0
- CYPSE herbicidal effect rating ([13]; 0.2500 kg/ha): 0.0
- SAGPY herbicidal effect rating ([14]; 0.0313 kg/ha): 0.0
- SAGPY herbicidal effect rating ([14]; 0.0625 kg/ha): 3.0
- SAGPY herbicidal effect rating ([14]; 0.1250 kg/ha): 5.0
- SAGPY herbicidal effect rating ([14]; 0.2500 kg/ha): 8.0
- Herbicidal rating CYPSE ([15]; Rate 0.0313 kg/ha): 0.0
- Herbicidal rating CYPSE ([15]; Rate 0.0625 kg/ha): 0.0
- Herbicidal rating CYPSE ([15]; Rate 0.1250 kg/ha): 0.0
- Herbicidal rating CYPSE ([15]; Rate 0.2500 kg/ha): 0.0
